From ChEMBL document CHEMBL4340516, “Synthesis and antitumor activity of novel steroidal imidazolium salt derivatives” (Eur J Med Chem, 2019)

Legend:
Assay type in all cases: functional, cell-based
MCF7 = experiment: Antiproliferative activity against human MCF7 cells assessed as reduction in cell viability incubated for 48 hrs by MTS assay; details: MCF7, 48 h
SMMC-7721 = experiment: Antiproliferative activity against human SMMC7721 cells assessed as reduction in cell viability incubated for 48 hrs by MTS assay; details: SMMC-7721, 48 h
SW480 = experiment: Antiproliferative activity against human SW480 cells assessed as reduction in cell viability incubated for 48 hrs by MTS assay; details: SW480, 48 h
HL-60 = experiment: Antiproliferative activity against human HL60 cells assessed as reduction in cell viability incubated for 48 hrs by MTS assay; details: HL-60, 48 h
A549 = experiment: Antiproliferative activity against human A549 cells assessed as reduction in cell viability incubated for 48 hrs by MTS assay; details: A549, 48 h

| IC50 (MCF7) | IC50 (SMMC-7721) | IC50 (SW480) | IC50 (HL-60) | IC50 (A549) | Structure (SMILES) |
| --- | --- | --- | --- | --- | --- |
| 2.11 µM | 1.45 µM | 2.55 µM | 1.22 µM | 2.45 µM | COc1ccc(C(=O)C[n+]2cn([C@@H]3CC[C@@]4(C)C(=CC[C@H]5[C@@H]6C[C@@H]7O[C@]8(CC[C@@H](C)CO8)[C@@H](C)[C@@H]7[C@@]6(C)CC[C@@H]54)C3)c3ccccc32)cc1 |
| 2.91 µM | 0.9 µM | 3.22 µM | 0.44 µM | 9.57 µM | Cc1cc2c(cc1C)[n+](CC(=O)c1ccccc1)cn2[C@@H]1CC[C@@]2(C)C(=CC[C@H]3[C@@H]4C[C@@H]5O[C@]6(CC[C@@H](C)CO6)[C@@H](C)[C@@H]5[C@@]4(C)CC[C@@H]32)C1 |
| 5.83 µM | 5.49 µM | 6.55 µM | 1.37 µM | 3.49 µM | C[C@@H]1CC[C@@]2(OC1)O[C@H]1C[C@H]3[C@@H]4CC=C5C[C@@H](n6cc[n+](CC(=O)c7ccc8ccccc8c7)c6)CC[C@]5(C)[C@H]4CC[C@]3(C)[C@H]1[C@@H]2C |
| 6.54 µM | 1.1 µM | 7.18 µM | 1.52 µM | 6.68 µM | COc1ccc(C(=O)C[n+]2ccn([C@H]3C[C@H]4[C@@H]5CC[C@H]([C@H](C)CCCC(C)C)[C@@]5(C)CC[C@@H]4[C@@]4(C)CC[C@@H]5C[C@]534)c2)cc1 |
| 6.98 µM | 1.29 µM | 6.06 µM | 1.53 µM | 7.28 µM | CC(C)CCC[C@@H](C)[C@H]1CC[C@H]2[C@@H]3C[C@H](n4cc[n+](CC(=O)c5ccccc5)c4)[C@]45C[C@H]4CC[C@]5(C)[C@H]3CC[C@]12C |
| 14.5 µM | 9.74 µM | > 20 µM | 9.51 µM | 9.92 µM | C[C@@H]1CC[C@@]2(OC1)O[C@H]1C[C@H]3[C@@H]4CC=C5C[C@@H](n6ccnc6)CC[C@]5(C)[C@H]4CC[C@]3(C)[C@H]1[C@@H]2C |
| 2.49 µM | 1.81 µM | 2.59 µM | 1.19 µM | 2.55 µM | C[C@@H]1CC[C@@]2(OC1)O[C@H]1C[C@H]3[C@@H]4CC=C5C[C@H](n6c[n+](CC(=O)c7ccccc7)c7ccccc76)CC[C@]5(C)[C@H]4CC[C@]3(C)[C@H]1[C@@H]2C |
| 8.7 µM | 1.22 µM | 8.23 µM | 1.42 µM | 7.84 µM | CC(C)CCC[C@@H](C)[C@H]1CC[C@H]2[C@@H]3C[C@H](n4cc[n+](CC(=O)c5cccc(Br)c5)c4)[C@]45C[C@H]4CC[C@]5(C)[C@H]3CC[C@]12C |
| > 20 µM | 1.88 µM | 10.5 µM | 10.6 µM | 8.82 µM | CC(C)CCC[C@@H](C)[C@H]1CC[C@H]2[C@@H]3CC=C4C[C@H](n5cc[n+](CC(=O)c6ccc7ccccc7c6)c5)CC[C@]4(C)[C@H]3CC[C@]12C |
| > 20 µM | > 20 µM | > 20 µM | > 20 µM | > 20 µM | CC(C)CCC[C@@H](C)[C@H]1CC[C@H]2[C@@H]3CC=C4C[C@H](n5ccnc5)CC[C@]4(C)[C@H]3CC[C@]12C |
| 8.84 µM | 1.42 µM | 6.56 µM | 7.73 µM | 8.1 µM | CC(C)CCC[C@@H](C)[C@H]1CC[C@H]2[C@@H]3CC=C4C[C@@H](n5cc[n+](CC(=O)c6ccccc6)c5)CC[C@]4(C)[C@H]3CC[C@]12C |
| 9.07 µM | 12 µM | 11.1 µM | 6.42 µM | > 20 µM | CC(=O)O[C@H]1CC[C@@]2(C)C(=CC[C@H]3[C@@H]4CC[C@H](n5cc[n+](CC(=O)c6ccccc6)c5)[C@@]4(C)CC[C@@H]32)C1 |
| 1.47 µM | 1.51 µM | 2.59 µM | 1.25 µM | 1.94 µM | COc1ccc(C(=O)C[n+]2ccn([C@@H]3CC[C@@]4(C)C(=CC[C@H]5[C@@H]6C[C@@H]7O[C@]8(CC[C@@H](C)CO8)[C@@H](C)[C@@H]7[C@@]6(C)CC[C@@H]54)C3)c2)cc1 |
| 8.35 µM | 1.41 µM | 9.29 µM | 5.39 µM | 6.95 µM | CC(C)CCC[C@@H](C)[C@H]1CC[C@H]2[C@@H]3CC=C4C[C@@H](n5cc[n+](Cc6ccc7ccccc7c6)c5)CC[C@]4(C)[C@H]3CC[C@]12C |
| 5.18 µM | 7.15 µM | 8.18 µM | 1.09 µM | 7.3 µM | C[C@@H]1CC[C@@]2(OC1)O[C@H]1C[C@H]3[C@@H]4CC=C5C[C@H](n6cc[n+](CC(=O)c7ccccc7)c6)CC[C@]5(C)[C@H]4CC[C@]3(C)[C@H]1[C@@H]2C |
| 1.95 µM | 2.45 µM | 4.03 µM | 1.22 µM | 4.92 µM | C[C@@H]1CC[C@@]2(OC1)O[C@H]1C[C@H]3[C@@H]4C[C@H](n5cc[n+](Cc6ccc7ccccc7c6)c5)[C@]56C[C@H]5CC[C@]6(C)[C@H]4CC[C@]3(C)[C@H]1[C@@H]2C |
| > 20 µM | > 20 µM | > 20 µM | > 20 µM | > 20 µM | Cc1cc2ncn([C@@H]3CC[C@@]4(C)C(=CC[C@H]5[C@@H]6C[C@@H]7O[C@]8(CC[C@@H](C)CO8)[C@@H](C)[C@@H]7[C@@]6(C)CC[C@@H]54)C3)c2cc1C |
| > 20 µM | 2.1 µM | 11.3 µM | 7.26 µM | 9.65 µM | CC(C)CCC[C@@H](C)[C@H]1CC[C@H]2[C@@H]3CC=C4C[C@@H](n5cc[n+](CC(=O)c6ccc7ccccc7c6)c5)CC[C@]4(C)[C@H]3CC[C@]12C |
| 1.43 µM | 1.71 µM | 1.65 µM | 1.25 µM | 1.55 µM | C[C@@H]1CC[C@@]2(OC1)O[C@H]1C[C@H]3[C@@H]4CC=C5C[C@H](n6cc[n+](CC(=O)c7cccc(Br)c7)c6)CC[C@]5(C)[C@H]4CC[C@]3(C)[C@H]1[C@@H]2C |
| 6.02 µM | 0.94 µM | 8.32 µM | 1.59 µM | 7.36 µM | CC(C)CCC[C@@H](C)[C@H]1CC[C@H]2[C@@H]3CC=C4C[C@H](n5cc[n+](Cc6ccccc6Br)c5)CC[C@]4(C)[C@H]3CC[C@]12C |
| 3.46 µM | 4.31 µM | 6.06 µM | 2.2 µM | 10.7 µM | COc1ccc(C(=O)C[n+]2ccn([C@H]3CC[C@H]4[C@@H]5CC=C6C[C@@H](OC(C)=O)CC[C@]6(C)[C@H]5CC[C@]34C)c2)cc1 |
| > 20 µM | > 20 µM | > 20 µM | > 20 µM | > 20 µM | C[C@@H]1CC[C@@]2(OC1)O[C@H]1C[C@H]3[C@@H]4CC=C5C[C@@H](O)CC[C@]5(C)[C@H]4CC[C@]3(C)[C@H]1[C@@H]2C [DISOGENIN] |
| 1.96 µM | 1.61 µM | 4.15 µM | 0.94 µM | 1.21 µM | COc1ccc(C(=O)C[n+]2ccn([C@H]3CC[C@@]4(C)C(=CC[C@H]5[C@@H]6C[C@@H]7O[C@]8(CC[C@@H](C)CO8)[C@@H](C)[C@@H]7[C@@]6(C)CC[C@@H]54)C3)c2)cc1 |
| 5.08 µM | 4.41 µM | 6.47 µM | 2.68 µM | 7.87 µM | C[C@]12CC[C@H]3[C@@H](CC=C4C[C@@H](O)CC[C@@]43C)[C@@H]1CC[C@@H]2n1cc[n+](Cc2ccc3ccccc3c2)c1 |
| 2.31 µM | 0.88 µM | 1.8 µM | 1.02 µM | 1.25 µM | C[C@@H]1CC[C@@]2(OC1)O[C@H]1C[C@H]3[C@@H]4CC=C5C[C@H](n6c[n+](Cc7ccc8ccccc8c7)c7ccccc76)CC[C@]5(C)[C@H]4CC[C@]3(C)[C@H]1[C@@H]2C |
| 5.5 µM | 7.38 µM | 7.39 µM | 2.69 µM | 7.76 µM | C[C@@H]1CC[C@@]2(OC1)O[C@H]1C[C@H]3[C@@H]4C[C@H](n5cc[n+](CC(=O)c6ccccc6)c5)[C@]56C[C@H]5CC[C@]6(C)[C@H]4CC[C@]3(C)[C@H]1[C@@H]2C |
| 9.87 µM | 1.77 µM | 10.4 µM | 0.28 µM | 8.11 µM | Cc1cc2c(cc1C)[n+](CC(=O)c1ccccc1)cn2[C@@H]1CC[C@@]2(C)C(=CC[C@H]3[C@@H]4CC[C@H]([C@H](C)CCCC(C)C)[C@@]4(C)CC[C@@H]32)C1 |
| 8.04 µM | 1.04 µM | 7.48 µM | 1.64 µM | 7.67 µM | CC(C)CCC[C@@H](C)[C@H]1CC[C@H]2[C@@H]3C[C@H](n4cc[n+](Cc5ccc6ccccc6c5)c4)[C@]45C[C@H]4CC[C@]5(C)[C@H]3CC[C@]12C |
| 5.21 µM | 7.28 µM | 6.46 µM | 1.28 µM | 7.03 µM | C[C@@H]1CC[C@@]2(OC1)O[C@H]1C[C@H]3[C@@H]4C[C@H](n5cc[n+](CC(=O)c6cccc(Br)c6)c5)[C@]56C[C@H]5CC[C@]6(C)[C@H]4CC[C@]3(C)[C@H]1[C@@H]2C |
| > 20 µM | > 20 µM | > 20 µM | > 20 µM | > 20 µM | CC(=O)O[C@H]1CC[C@@]2(C)C(=CC[C@H]3[C@@H]4CC[C@H](n5ccnc5)[C@@]4(C)CC[C@@H]32)C1 |

| Structure (SMILES) | IC50 (MCF7) | IC50 (SMMC-7721) | IC50 (SW480) | IC50 (HL-60) | IC50 (A549) |
| --- | --- | --- | --- | --- | --- |
| c1c[nH]cn1 [IMIDAZOLE] | > 20 µM | > 20 µM | > 20 µM | > 20 µM | > 20 µM |
